Experimental data reported in patent US9458219B2, “Human insulin analogue and acylated derivative thereof” (Shanghai Hengrui Pharmaceutical Co., Ltd., priority 2011, dated 2016).

Tests used:
[1] = tested on: rat models sufferring from diabetes (STZ); experiment: In vivo long-acting activity assay of insulin derivatives; parameters: species or system Sprague-Dawley (SD) rats; conditions: s.c., Humulin R 0.04, Detemir 0.2, others 0.1 mg/kg
Description: The rats were fed in an environment of SPF level. […] 100 mg/kg STZ was intraperitoneally injected to establish rat models sufferring from diabetes. Two days later, fasting blood glucose values were measured. […] At the beginning of the experiment, rats were weigh, and the blood glucose levels were measured (cut off tails and the blood glucose levels were detected by using Roche Glucometer and the corresponding test strips, similarly hereafter). On the basis of blood glucose values, rats were randomly divided into groups, 43 rats per group. The drug to be used was prepared in required concentrations. After subcutaneous injection of drugs, blood glucose levels were measured at multiple time points. IP (Index of Prolongation) was calculated according to blood glucose level.

[2] = tested on: rat models sufferring from diabetes (STZ); experiment: In vivo long-acting activity assay of PEGylated insulin; parameters: species or system Sprague-Dawley (SD) rats; conditions: for Blood glucose value (%): Humulin R 0.04, Detemir 0.2, PEG insulins 0.1 mg/kg; for AOC % / IP (Index of Prolongation): s.c.
Description: Sprague-Dawley (SD) rats, male, used in this experiment were purchased from SINO-BRITSH SIPPR/BK LAB. ANIMAL LTD., CO, License number: SCXK (Shanghai) 2008-0016, 18-20 g. The rats were fed in an environment of SPF level. ICR male mice were fed three days in a laboratory environment, at temperature of 20-25° C., and humidity of 40-60%. The mice were fasted for 8 hrs before the experiment. 100 mg/kg STZ was intraperitoneally injected to establish rat models sufferring from diabetes. Two days later, fasting blood glucose values were measured. […] At the beginning of the experiment, rats were weigh, and the blood glucose levels were measured (cut off tails and the blood glucose levels were detected by using Roche Glucometer and the corresponding test strips, similarly hereafter). On the basis of blood glucose values, rats were randomly divided into groups, 43 rats per group. The drug to be used was prepared in required concentrations. After subcutaneous injection of drugs, blood glucose levels were measured at multiple time points. IP (Index of Prolongation) was calculated according to blood glucose level.

[3] = Table 5, Humulin R 0.04, Detemir 0.2, PEG (20 kD) insulins 0.1 mg/kg
[4] = Table 6, Humulin R 0.04, Detemir 0.2, PEG (30/40 kD) insulins 0.1 mg/kg

Substance: Detemir
- Blood glucose level (%) ([1]; 0 h): 100.00%
- Blood glucose level (%) ([1]; 0.5 h): 72.21%
- Blood glucose level (%) ([1]; 1 h): 35.57%
- Blood glucose level (%) ([1]; 2 h): 14.45%
- Blood glucose level (%) ([1]; 4 h): 16.32%
- Blood glucose level (%) ([1]; 6 h): 23.80%
- Blood glucose level (%) ([1]; 8 h): 34.77%
- Blood glucose level (%) ([1]; 10 h): 51.42%
- Blood glucose level (%) ([1]; 12 h): 39.68%
- Blood glucose level (%) ([1]; 14 h): 58.06%
- Blood glucose level (%) ([1]; 16 h): 74.84%
- Blood glucose level (%) ([1]; 18 h): 91.67%
- Blood glucose level (%) ([1]; 20 h): 99.05%
- AOC [1]: 69.2
- IP (Index of Prolongation) [1]: 100
- Blood glucose value (%) ([2]; Table 5, 0 h): 100%
- Blood glucose value (%) ([2]; Table 5, 1 h): 96.63%
- Blood glucose value (%) ([2]; Table 5, 2 h): 57.24%
- Blood glucose value (%) ([2]; Table 5, 4 h): 32.49%
- Blood glucose value (%) ([2]; Table 5, 6 h): 40.98%
- Blood glucose value (%) ([2]; Table 5, 8 h): 86.94%
- Blood glucose value (%) ([2]; Table 5, 10 h): 112.66%
- Blood glucose value (%) ([2]; Table 5, 12 h): 127.52%
- AOC % [2, 3]: 7.39%
- IP (Index of Prolongation) [2, 3]: 100
- AOC % [2, 4]: 5.92%
- IP (Index of Prolongation) [2, 4]: 100
- Blood glucose value (%) ([2]; Table 6, time 0): 100.00%
- Blood glucose value (%) ([2]; Table 6, time 1): 104.15%
- Blood glucose value (%) ([2]; Table 6, time 2): 74.83%
- Blood glucose value (%) ([2]; Table 6, time 3): 46.46%
- Blood glucose value (%) ([2]; Table 6, time 4): 23.36%
- Blood glucose value (%) ([2]; Table 6, time 6): 17.11%
- Blood glucose value (%) ([2]; Table 6, time 8): 32.52%
- Blood glucose value (%) ([2]; Table 6, time 10): 94.89%
- Blood glucose value (%) ([2]; Table 6, time 12): 110.45%
